# Values of other authors in patent US11173140B2, “Dosing regimens of PKC activators” (COGNITIVE RESEARCH ENTERPRISES, INC., priority 2015, dated 2021).
# Like-named read-outs stand apart in the source and are kept apart here.
# Key:
# PKC [1] = settings: cited from earlier work
# PKC [2] = settings: cited from earlier work; remark: listed apart in the source
# PKC [3] = settings: competition with [3H] phorbol dibutyrate; read-out: Ki, binding to PKC; cited from earlier work
# NCI 60 cell line screen = settings: NCI 60 cell lines; cited from earlier work
# [4] = A-ring bryologs, read-out: affinity for PKC
smiles,measurement,setting,value
CCCCCCCC(=O)O[C@H]1/C(=C/C(=O)OC)C[C@H]2C[C@H](CO)OC(=O)C[C@H](O)C[C@@H]3CCC[C@H](C[C@@H]4CCO[C@H](/C=C/C(C)(C)[C@]1(O)O2)O4)O3 [Analog 1],affinity for PKC (in words),PKC [1],highest affinity
same,Ki,PKC [1]; read-out: PKC Affin,0.25 nM
"CCC1CC1CC1CC1CC1CC1CC1CC1CC1CC1CC1CC1CCC(=O)OC (stereo not shown) [DHA-CP6, cyclopropanated docosahexaenoic acid methyl ester]",effective concentration,PKC [2],10 nM
"CC1=C[C@]23C(=O)[C@@H](C=C(COC(=O)c4ccccc4)[C@@H](O)[C@]2(O)[C@H]1OC(=O)c1ccccc1)[C@H]1[C@@H](C[C@H]3C)C1(C)C [Ingenol 3,20-dibenzoate]",Ki,PKC [3],240 nM
CC1=CC[C@H](C)C(C)(C)[C@@H]1/C=C/C(C)=C/CC[C@@]1(CO)[C@H](CCCO)/C(=C(/C)C=O)CC[C@]1(C)O [Iripallidal],GI50 (concentration required to inhibit growth by 50%),NCI 60 cell line screen,micromolar to nanomolar range
CCCCCCCC(=O)OC1C(=CC(=O)OC)CC2CC(CO)OC(=O)CC(O)CCOC(C(C)(C)C)CC3CCOC(C=CC(C)(C)C1(O)O2)O3 (stereo not shown) [bryolog 3],Ki,PKC [1]; [4],6.5 nM
CCCCCCCC(=O)OC1C(=CC(=O)OC)CC2CC(CO)OC(=O)CC(O)CCOC(c3ccccc3)CC3CCOC(C=CC(C)(C)C1(O)O2)O3 (stereo not shown) [bryolog 4],Ki,PKC [1]; [4],2.3 nM
